Assay results reported in patent publication US12521415B2, “Accelerating repair of mucosal injury using gold(III) compounds” (University of Kentucky Research Foundation, priority 2020, dated 2026).
Entries after “also recorded” stand apart in the source; their conditions may differ.

Key:
human colonoids = assay: AmplexRed H2O2 production in human colonoid monolayer cultures; format: cell-based
Procedure: FIG. 11A includes representative images showing AuPhos-induced (200 nM) mtROS (superoxide) production using MitoSOX Red assay.
Murine IEC will be isolated as above. Human biopsies will be incubated for 15 min at RT in CMF-HBSS/10 mM DTT with following incubation at 4° C. CMF-HBSS/8 mM EDTA for 75 min. Epithelial cells will be dislodged by vigorous shaking. Large pieces of tissue will be discarded, epithelial cells harvested by centrifugation at 40 g/5 min and imbedded in Matrigel. Both human and mouse colonoids will be grown in WRN medium (conditional medium from L-WRN cells (ATCC CRL-3276)) supplemented with 20% FBS, 500 nM A 83-01, 10 μM SB 202190, 10 μM Y27632, 2.5 μM CHIR99021, 100 μg/ml piromicin and 2.5 μg/ml amphotericin. Colonoids will be passaged every 5-7 days. NCM460 cells derived from normal human colon mucosa were purchased from INCELL Corporation, and will be cultured in M3:10 medium with 30% conditioned medium from previous culture under standard incubation conditions.
Given the in vivo data in FIG. 10, it was determined if AuPhos increases ROS levels within mitochondria (mtROS). To examine this possibility, colonic NCM460 cells were cultured, treated with a positive control (Rotenone), AuPhos (200 nM) or AuPhos with PEG-SOD (negative control) and analyzed with MitoSOX Red (an indicator of mitochondrial superoxide). […]

[1] = system: mouse liver mitochondria (complex I); assay: AuPhos-induced OCR in mouse liver mitochondria; format: biochemical; settings: complex I-driven, substrates pyruvate and succinate
Text: (§1) FIGS. 8A-8J present properties of AuPhos. FIG. 8A includes a chemical structure of AuPhos. FIG. 8B includes extrapolated AuPhos-induced OCR (complex I) in liver mitochondria. […] FIG. 8E provides weight change in AuPhos-treated mice over time. FIG. 8F presents stability of AuPhos in PBS and DMEM. FIG. 8G presents stability of AuPhos in PBS and DMEM. FIG. 8H includes an AuPhos-induced Heat map of DEG (left Panel), obtained using log 2(Fold Change) and p-Value <0.00001 thresholds in MDA-MB-231(107) cells (n=2), and the top six hits of KEGG analysis (right panel). FIG. 8I presents biodistribution and pharmacokinetics of AuPhos in different tissues; Colon, Small bowel, Lung, Kidney, Spleen, Liver, Heart and Blood after single dose (oral, 25 mg/kg) administration of AuPhos at 6 h, 12 h and 24 h. FIG. 8J presents biodistribution and pharmacokinetics of AuPhos in different tissues stool after single dose (oral, 25 mg/kg) administration of AuPhos at 6 h, 12 h and 24 h.
OxPHOS will be then be stimulated by subsequent addition of ADP followed by additional CI substrate glutamate (5 mM). […] Residual non-mitochondrial oxygen consumption will be determined by addition of complex III inhibitor antimycin-A (1 ug/ml). Oxygen consumption rate (OCR) of isolated mitochondria will also be evaluated using Oxygraph-2K or high-throughput Seahorse XFe24 Extracellular Flux Analyzer (Agilent Technologies). […]

MDA-MB-231 cells = assay: Transcriptomics of global mRNA changes after AuPhos exposure; format: cell-based; settings: 12 h exposure
Text: as §1
This observation was mitochondrial complex I-driven when different substrates, i.e. pyruvate and succinate, were used to measure the OCR. Transcriptomics was used to study global changes in mRNA in response to a 12 h exposure of AuPhos to MDA-MB-231 cells (FIG. 8H).

## [Cl][Au]1([c]2ccccc2Cc2ccccn2)[P](c2ccccc2)(c2ccccc2)c2ccccc2[P]1(c1ccccc1)c1ccccc1 [AuPhos]
Human colonoids; AuPhos 200 nM, normal and low-dose TNF-stimulated human colonoids, AmplexRed
  hydrogen peroxide (H2O2) production: increased in normal and TNF-treated cells; also recorded: Increases H2O2 production
Human colonoids; human colonoids
  AuPhos-induced ROS (H2O2) with PEG catalase: specifically digested with PEG catalase
[1]
  mitochondrial respiration (OCR): directly and rapidly enhances mitochondrial respiration; also recorded: significant increase in mitochondrial respiration induced by AuPhos in a dose-dependent manner
MDA-MB-231 cells
  differentially expressed genes (mRNA): mitochondrial OXPHOS genes: MT-ND1-5, MT-CYB, MT-CO1-3, and MTATP6 were modulated
